Legend:
PTP1B = biological target: T1, PTP1B (Homo sapiens, UniProt P18031); experiment: Phosphatase activity assay (Bio-Biochem-DiFMUP), PTP1B; format: biochemical; conditions: DiFMUP substrate, room temperature
T1 sequence (P18031 1-435): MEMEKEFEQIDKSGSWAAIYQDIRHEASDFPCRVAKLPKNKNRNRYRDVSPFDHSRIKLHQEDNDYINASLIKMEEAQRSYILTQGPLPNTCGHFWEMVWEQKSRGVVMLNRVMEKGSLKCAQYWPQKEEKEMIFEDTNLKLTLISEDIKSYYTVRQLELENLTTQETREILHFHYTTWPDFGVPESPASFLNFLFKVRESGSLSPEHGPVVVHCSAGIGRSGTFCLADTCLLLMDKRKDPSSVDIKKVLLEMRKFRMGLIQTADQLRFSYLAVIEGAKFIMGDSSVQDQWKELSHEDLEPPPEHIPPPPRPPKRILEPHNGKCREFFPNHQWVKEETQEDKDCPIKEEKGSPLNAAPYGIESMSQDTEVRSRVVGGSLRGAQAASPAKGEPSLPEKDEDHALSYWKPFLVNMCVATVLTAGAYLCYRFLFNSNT
Source text: (§1) The selectivity and potency of a small molecule PTPN2 inhibitor as provided herein (e.g., a derivative of Formula I, II, III, IV; or sub-formulae thereof) against one or more protein tyrosine phosphatase (PTP) enzymes, and specifically against PTPN2, can be assessed in various ways. The one or more PTP enzymes comprise Mycobacterium protein tyrosine phosphatase A (mPTPA), Mycobacterium protein tyrosine phosphatase B (mPTPB), PTPN1 (i.e., PTP1B), PTPN2 (i.e., TC-PTP), SHP-1, SHP-2, FAP-1, Meg2, HePTP, Laforin, VHX, VHR, LMWPTP, Cdcl4A, LAR, CD45, PTPRG, a fragment thereof, a variant thereof, and a combination thereof. Selectivity and potency of a small molecule PTPN2 inhibitor is evaluated using a PTP activity inhibition assay. The assay is performed using a buffer comprising 50 millimolar (mM) Bis-Tris (pH=6.3), 2 mM EDTA, and 5 mM N,N′-dimethyl-N,N′-bis(mercaptoacetyl)hydrazine (DMH). The assay is performed using a phosphated substrate, e.g., 10 mM fluorescein diphosphate (FDP) that is stored at −20° C. Alternatively or in addition to, the assay is performed using 10 mM DiFMUP as a phosphated substrate. Each PTP enzyme is diluted in an enzyme dilution buffer comprising 50 mM Bis-Tris (pH=6.3), 2 mM EDTA, 5 mM DMH, 20% (vol./vol.) glycerol, and 0.01% (vol./vol.) Triton X-100.
(§2) The assay is carried out at room temperature in 96 well plates. A reaction mixture of 170 microliter (μL) of the assay buffer comprising 10 μM FDP or DiFMIUP is added to each well. A 10 μL volume of (i) a compound disclosed herein (e.g., PTPN2 inhibitor) dissolved in DMSO at one of 10 concentrations from a serial dilution or (ii) DMSO alone for control is added to each well. The reaction is initiated by adding 20 μL of a PTP enzyme (e.g., PTPN2) that is diluted in the enzyme dilution buffer. The phosphatase activity of the PTP enzyme is assessed by monitoring appearance of a fluorescent product (e.g., fluorescein monophosphate (FMP) from FDP, or 6,8-difluoro-7-hydroxyl-4-coumarin (DiFMU) from DiFMUP) continuously for about 15 to 30 minutes, using the SpectraMax® Gemini™ XPS Microplate Spectrofluorometer (Molecular Devices®) with excitation of 440 nm and emission at 530 nm (cutoff filter at 525 nm) for FMP and excitation at 360 nm and emission at 450 nm (cutoff filter at 435 nm) for DiFMU. The rate (e.g., the initial rate) of FMP or DiFMU formation is plotted against the concentration of the small molecule PTPN2 inhibitor, and the data is fitted (e.g., using a 4-parameter equation) to determine the inflection point of the fit as the IC50 of the small molecule PTPN2 inhibitor for a specific enzyme. Table 6 summarizes the IC50 values of compounds disclosed herein against PTPN2 and PTPN1.

PTPN2 = biological target: T2, PTPN2 (Homo sapiens, UniProt P17706); experiment: Phosphatase activity assay (Bio-Biochem-DiFMUP), PTPN2; format: biochemical; conditions: DiFMUP substrate, room temperature
T2 sequence (P17706 1-415): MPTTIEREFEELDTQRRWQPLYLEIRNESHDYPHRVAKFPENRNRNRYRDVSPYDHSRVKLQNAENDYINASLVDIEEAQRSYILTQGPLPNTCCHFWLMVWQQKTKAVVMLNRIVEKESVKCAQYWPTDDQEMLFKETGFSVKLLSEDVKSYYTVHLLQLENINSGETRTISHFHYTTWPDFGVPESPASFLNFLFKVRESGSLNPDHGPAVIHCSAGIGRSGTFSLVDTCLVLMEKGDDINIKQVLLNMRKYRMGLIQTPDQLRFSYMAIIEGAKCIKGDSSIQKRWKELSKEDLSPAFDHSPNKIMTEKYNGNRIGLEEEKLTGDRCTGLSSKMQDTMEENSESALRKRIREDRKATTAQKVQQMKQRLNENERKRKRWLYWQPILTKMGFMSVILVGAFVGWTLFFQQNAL
Source text: as §1, §2

OT-1 cells = experiment: T-cell activation: intracellular production of IFNγ and TNFα in exhausted OT-1 cells; format: cell-based; conditions: 10 uM compound, OT-1 cells restimulated with 1 μM OVA, read-out: % TNFa + /IFNg + production in compound-treated cells (uM compound) relative to negative control (DMSO)
Description: 1*10^6 OT-1 cells are seeded in a 24well in a volume of 1 mL of RPMI/10% FCS, and activated with 10 nM OVA protein for 48 h. Cells are then split 1:4 into 96well plates after two washes in warm media. To induce exhaustion, cells are then expanded for 3 days in the presence of vehicle control or a compound described herein (e.g., PTPN2 inhibitor) various concentrations, as well as 5 ng/ml IL-7 and 5 ng/ml IL-15, with the addition of fresh OVA on each day. After this point, cells are treated with Brefeldin A and restimulated with 1 μM of OVA for 4-6h, and cells are stained to assess production of IFNγ and TNFα intracellularly by flow cytometry. The results are shown as increase in percentage production of IFNγ and TNFα in cells treated with an exemplified compound at 10 uM, relative to a negative control (DMSO) of cells without being treated with the compound but merely DMSO (a solvent in which exemplified compounds are dissolved). See Table 10 below summarizes percentage increase in IFNγ and TNFα intracellular production in cells treated with an exemplified compound (at 10 uM) or without it, relative to a negative control (DMSO).

[1] = tested on: B16F10 mouse melanoma cells; experiment: MHC expression associated with IFNγ signaling, flow cytometry; format: cell-based; conditions: B16-F10, 3 uM compound, 48 hours, normalized to DMSO/with IFNγ control, read-out: % MHC in cells treated with Compound at 3 uM relative to negative control (DMSO)
Description: B16F10 mouse melanoma cells (ATCC Cat #CRL-6475, Manassas, VA) are seeded at approximately a density of 500 cells per well in a 384-well clear bottom plate (Corning Cat #3765, Corning, 5 NY) in 25 μL total volume of DMEM+10% FBS (Sigma Cat #D6429 and Sigma Cat #F4135, St. Louis, MO). Cells are allowed to adhere overnight at 37° C.+5% CO2. On the following day, 12.5 μL of mouse IFNγ (RD systems Cat #485-MI/CF, Minneapolis, MN) is added to half of the plate (columns 13-24) at a concentration of 2 ng/mL for a final assay concentration of 0.5 ng/mL of IFNγ. Media only (12.5 μL of DMEM+10% FBS) is added to the remainder of the 10 plate (columns 1-12). Next, compounds resuspended in DMSO (Sigma Cat #D2650) at 100 mM are diluted in semi-log dilutions in DMSO ranging from 100 mM to 0.001 mM and DMSO only controls are included. The compound/DMSO dilutions are further diluted 1:250 in DMEM+10% FBS, and 12.5 μL of these dilutions are added in triplicates to cells of both treatment arms (with and without IFNγ). Compounds are only dosed in the inner 240 wells, avoiding the outer 2-well perimeter of the plate to minimize edge effects. Finally, the plate is loaded into an IncuCyte® S3 Live Cell Analysis System (Essen Bioscience-Sartorius, Ann Arbor, MI) maintained in a 37° C.+5% CO2 incubator, allowed to equilibrate for 2 hours, and treated for 48 hours. MHC levels are measured by flow cytometry using a FITC anti-mouse H-2kb antibody (clone AF6-88.5), and levels are normalized based on DMSO/with IFNγ control. Table 7 below summarizes the percentage in MHC expression in cells treated with or without compounds disclosed herein at a specified concentration.

mouse C57BL/6 T cells = experiment: pSTAT1 signaling in IFNα-stimulated T cells, flow cytometry; format: cell-based; conditions: T-cell, 10 uM compound, T cells stimulated for 5 hours by IFNα, read-out: % pSTAT1 in cells treated with subject compounds relative to negative control (DMSO)
Description: IFNα signaling in mouse C57BL/6 T cells promotes activation of multiple signaling pathways associated with antitumor responses. A key target of this signaling is phosphorylation of the transcription factor STAT1. […] T cells are stimulated for 5 hours by IFNα in the presence or absence of exemplified compounds disclosed herein (e.g., PTPN2 inhibitors) and stained intracellularly with antibodies for phosphorylated STAT1 and then analyzed by flow cytometry. Enhancement of phosphorylation of STAT1 is read out as a percentage over the DMSO control.

| SMILES | IC50 (PTP1B) | IC50 (PTPN2) | activity at 10 µM (OT-1 cells) | activation at 3 µM [1] | activity at 10 µM (mouse C57BL/6 T cells) |
| --- | --- | --- | --- | --- | --- |
| O=C1CN(c2c(O)cc3ccc(OCC4CCCOC4)nc3c2F)S(=O)(=O)N1 (stereo not shown) [Compound 144] | ≤ 1000 nM | ≤ 1000 nM | 251% | > 10% |  |
| CC(C)CCNc1ccc2cc(O)c(N3CC(=O)NS3(=O)=O)cc2n1 [Compound 113, 5-(6-hydroxy-2-(isopentylamino)quinolin-7-yl)-1,2,5-thiadiazolidin-3-one 1,1-dioxide] | ≤ 1000 nM | ≤ 1000 nM | 210% |  |  |
| O=C1CN(c2c(O)cc3ccc(OCCc4ccccc4)nc3c2F)S(=O)(=O)N1 [Compound 151] | ≤ 1000 nM | ≤ 1000 nM | 227% | 1 to 10% |  |
| CC(C)(C)CCOc1ccc2cc(O)c(N3CC(=O)NS3(=O)=O)c(F)c2n1 [Compound 150] | ≤ 1000 nM | ≤ 1000 nM | 260% |  |  |
| CC(C)CCNC(=O)c1cc2c(F)c(N3CC(=O)NS3(=O)=O)c(O)cc2s1 [Compound 130, 5-(1,1-dioxido-4-oxo-1,2,5-thiadiazolidin-2-yl)-4-fluoro-6-hydroxy-N-isopentylbenzo[b]thiophene-2-carboxamide] | ≤ 1000 nM | ≤ 1000 nM |  | > 10% |  |
| COC(C)(C)CCOc1ccc2cc(O)c(N3CC(=O)NS3(=O)=O)c(F)c2n1 [Compound 149] | ≤ 1000 nM | ≤ 1000 nM | 207% | > 10% |  |
| O=C1CN(c2c(O)cc3ccc(OCC4CCOC4)nc3c2F)S(=O)(=O)N1 (stereo not shown) [Compound 139] | ≤ 1000 nM | ≤ 1000 nM | 226% | > 10% |  |
| CC(C)CCNc1cc2cc(N3CC(=O)NS3(=O)=O)c(O)cc2n(C)c1=O [Compound 120] | ≤ 1000 nM | ≤ 1000 nM | 194% |  |  |

Now from value to molecule, other results behind:

| IC50 (PTP1B) | IC50 (PTPN2) | SMILES | activity at 10 µM (OT-1 cells) | activation at 3 µM [1] | activity at 10 µM (mouse C57BL/6 T cells) |
| --- | --- | --- | --- | --- | --- |
| ≤ 1000 nM | ≤ 1000 nM | CC(C)(C)CCOc1ccc2cc(O)c(N3CC(=O)NS3(=O)=O)cc2n1 [Compound 183] | 162% | < 1% |  |
| ≤ 1000 nM | ≤ 1000 nM | O=C1CN(c2c(O)cc3ccc(OCCc4ccc(F)cc4)nc3c2F)S(=O)(=O)N1 [Compound 204, 5-(8-fluoro-2-(4-fluorophenethoxy)-6-hydroxyquinolin-7-yl)-1,2,5-thiadiazolidin-3-one 1,1-dioxide] | 430% | 1 to 10% |  |
| ≤ 1000 nM | ≤ 1000 nM | CC(C)CCCc1cc2c(F)c(N3CC(=O)NS3(=O)=O)c(O)cc2n(C)c1=O [Compound 190] |  | 1 to 10% |  |
| ≤ 1000 nM | ≤ 1000 nM | O=C1CN(c2c(O)cc3c(cc(NC4CCCC4)c(=O)n3C3CC3)c2F)S(=O)(=O)N1 [Compound 185] |  |  | 181% |
| ≤ 1000 nM | ≤ 1000 nM | CC(C)CCNc1cc2c(F)c(N3CC(=O)NS3(=O)=O)c(O)cc2n(C)c1=O [Compound 186] |  | > 10% |  |
| ≤ 1000 nM | ≤ 1000 nM | CC(C)Nc1cc2c(F)c(N3CC(=O)NS3(=O)=O)c(O)cc2n(C)c1=O [Compound 165] |  |  | 139% |
| ≤ 1000 nM | ≤ 1000 nM | N#CCCCOc1ccc2cc(O)c(N3CC(=O)NS3(=O)=O)c(F)c2n1 [Compound 155] |  | > 10% |  |
| ≤ 1000 nM | ≤ 1000 nM | O=C1CN(c2c(O)cc3ccc(OCCC4CCCC4)nc3c2F)S(=O)(=O)N1 [Compound 158] | 152% | > 10% |  |
